Test results: ChEMBL document CHEMBL5584233, “Amide bioisosteric replacement in the design and synthesis of quorum sensing modulators” (Eur J Med Chem, 2024)

Experiments:
[1] = target: T1, Transcriptional regulator MvfR (Pseudomonas aeruginosa PA14, UniProt A0A072ZLE6); assay: Antagonist activity at PqsR in Pseudomonas aeruginosa IPCD48 clinical isolate assessed as reduction in PQS level at 0.1 uM by LCMS/MS analysis
T1 sequence (A0A072ZLE6 whole entry): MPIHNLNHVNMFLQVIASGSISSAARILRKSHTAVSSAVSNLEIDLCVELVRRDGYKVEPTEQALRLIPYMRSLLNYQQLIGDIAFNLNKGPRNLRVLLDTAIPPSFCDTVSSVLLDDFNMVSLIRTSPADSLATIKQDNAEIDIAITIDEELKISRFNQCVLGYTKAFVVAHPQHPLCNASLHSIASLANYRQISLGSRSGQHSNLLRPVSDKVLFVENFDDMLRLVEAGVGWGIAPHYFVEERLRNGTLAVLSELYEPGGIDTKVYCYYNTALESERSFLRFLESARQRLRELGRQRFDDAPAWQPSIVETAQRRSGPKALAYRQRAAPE

[2] = Inhibition of quorum sensing system in Chromobacterium violaceum CV026 assessed as reduction in violacein production
[3] = target: T1, Transcriptional regulator MvfR; assay: Antagonist activity at PqsR in wild-type Pseudomonas aeruginosa PAO1-L assessed as reduction in HHQ level at 0.1 uM by LCMS/MS analysis
[4] = Inhibition of quorum sensing system in Pseudomonas aeruginosa PAO1 transfected with lasB-GFP by measuring reduction in fluorescence intensity measured for 16 hrs by fluorescence assay
[5] = target: T2, Transcriptional activator protein LasR (Pseudomonas aeruginosa (strain ATCC 15692 / PAO1 / 1C / PRS 101 / LMG12228), UniProt P25084); assay: Inhibition of LasR-mediated quorum sensing system in Pseudomonas aeruginosa PAO1 assessed as inhibition of elastase production
T2 sequence (P25084 whole entry): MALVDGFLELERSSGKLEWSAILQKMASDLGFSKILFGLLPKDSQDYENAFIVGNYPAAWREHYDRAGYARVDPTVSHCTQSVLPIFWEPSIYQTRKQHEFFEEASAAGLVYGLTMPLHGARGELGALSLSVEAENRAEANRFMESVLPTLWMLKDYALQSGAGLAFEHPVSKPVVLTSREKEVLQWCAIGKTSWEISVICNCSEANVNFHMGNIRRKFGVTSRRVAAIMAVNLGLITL

[6] = target: T2, Transcriptional activator protein LasR; assay: Inhibition of LasR-mediated quorum sensing system in Pseudomonas aeruginosa PAO1 assessed as inhibition of pyocyanin production incubated for 24 hrs by absorbance based assay
[7] = tested on: Pseudomonas aeruginosa; assay: Antibiofilm activity against Pseudomonas aeruginosa PAO1 assessed as inhibition of biofilm formation at 50 uM incubated for 24 hrs by crystal violet staining based absorbance assay relative to control; format: functional; design: scale not given: the % may be the effect or the level left
[8] = Inhibition of quorum sensing system in Pseudomonas aeruginosa PAO1
[9] = target: T1, Transcriptional regulator MvfR; assay: Inhibition of PqsR-mediated quorum sensing system in Pseudomonas aeruginosa PAO1 assessed as inhibition of pyocyanin production at 20 uM incubated for 24 hrs by absorbance based assay
[10] = Inhibition of quorum sensing system in Vibrio fischeri; design: species or system Aliivibrio fischeri
[11] = target: T3, Transcriptional regulator MvfR (Pseudomonas aeruginosa PA14) (UniProt A0A072ZLE6); assay: Inhibition of PqsR-mediated quorum sensing system in Pseudomonas aeruginosa PAO1 assessed as inhibition of pyocyanin production at 100 uM relative to control
T3 sequence (whole entry): T1 sequence (A0A072ZLE6 whole entry)

[12] = target: T1, Transcriptional regulator MvfR; assay: Antagonist activity at PqsR in wild-type Pseudomonas aeruginosa PAO1 assessed as reduction in AQ level
[13] = target: T4, Transcriptional activator protein TraR (Agrobacterium tumefaciens, UniProt P33905); assay: Antagonist activity at Agrobacterium tumefaciens TraR receptor
T4 sequence (P33905 whole entry): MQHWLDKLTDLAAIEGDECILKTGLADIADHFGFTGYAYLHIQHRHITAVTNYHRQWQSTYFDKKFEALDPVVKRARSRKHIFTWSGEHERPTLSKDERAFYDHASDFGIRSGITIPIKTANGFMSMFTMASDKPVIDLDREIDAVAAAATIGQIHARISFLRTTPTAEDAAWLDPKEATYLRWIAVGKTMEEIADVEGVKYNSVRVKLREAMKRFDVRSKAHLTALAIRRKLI

[14] = target: T1, Transcriptional regulator MvfR; assay: Inhibition of PqsR-mediated quorum sensing system in Pseudomonas aeruginosa PAO1 assessed as inhibition of pyocyanin production incubated for 24 hrs by absorbance based assay

SMILES: O=C(CN1CCOCC1)Oc1cccc([N+](=O)[O-])c1
- IC50 [1]: 22 µM

SMILES: O=C(Nc1ccc(S(=O)(=O)N[C@H]2CCOC2=O)cc1)c1sccc1Cl
- IC50 [2]: 6.2 µM

SMILES: CCCCSC(=O)N[C@H]1CCOC1=O
- IC50 [3]: 45 µM

SMILES: O=C(NCCc1ccc(Br)cc1)c1ccccc1[N+](=O)[O-]
- IC50 [4]: 4.8 µM

SMILES: O=C(NCc1cccc(I)c1)c1ccccc1[N+](=O)[O-]
- IC50 [4]: 6.5 µM

SMILES: CCCCCCOC(=O)N[C@H]1CCOC1=O
- IC50 [3]: 73 µM

SMILES: CCOC(=O)CC(=O)c1ccccc1
- IC50 [1]: 76 µM

SMILES: O=[N+]([O-])c1ccccc1S(=O)(=O)Nc1ccc(S(=O)(=O)Nc2nccs2)cc1
- IC50 [5]: 60 µM

SMILES: Cc1cc(C)c(S(=O)(=O)NC[C@H]2O[C@@H](C)[C@@H](O)[C@@H](O)[C@@H]2O)c(C)c1
- IC50 [6]: 3 µM

SMILES: O=C(Nc1cc(=O)c2ccccc2o1)c1ccc(F)cc1
- Activity [7]: 65.3%

SMILES: O=C(Nc1cc(=O)c2ccccc2o1)c1ccc([N+](=O)[O-])cc1[N+](=O)[O-]
- Activity [7]: 90%

SMILES: CCCCCCCCCS(=O)(=O)N[C@H]1CCOC1=O
- IC50 [8]: 1 µM

SMILES: CO[C@H]1O[C@H](CNS(=O)(=O)c2c(C)cc(C)cc2C)[C@@H](O)[C@H](O)[C@@H]1O
- IC50 [6]: 4 µM

SMILES: O=C(N[C@H]1CCOC1=O)SCc1ccc([N+](=O)[O-])cc1
- IC50 [3]: 23 µM

SMILES: O=C(N[C@H]1CCOC1=O)OCc1ccc([N+](=O)[O-])cc1
- IC50 [3]: 22 µM

SMILES: FC(F)(F)c1cc(NCc2cn(-c3ccc(Oc4ccccc4)cc3)nn2)ccn1
- IC50 [9]: 0.011 µM

SMILES: CCCCCS(=O)(=O)NC1CCOC1=O (stereo not drawn)
- IC50 [10]: 2 µM

SMILES: CCCCNC(=O)CSc1nc2ccccc2c(=O)n1C1CC1
- inhibition [11]: 62%

SMILES: CCCCCCCCCCCCn1nnc(CC(=O)O)n1
- IC50 [12]: 0.03 µM

SMILES: O=C(Nc1ccc(S(=O)(=O)N[C@H]2CCOC2=O)cc1)c1ccccc1F
- IC50 [2]: 1.6 µM

SMILES: CCOC(=O)CC(=O)c1ccc(F)cc1
- IC50 [1]: 23 µM

SMILES: CCCCCCc1cncn1CC(=O)OCC
- IC50 [9]: 87 µM

SMILES: Fc1ccc(-n2cc(CNc3ccnc(C(F)(F)F)c3)nn2)cc1
- IC50 [9]: 0.196 µM

SMILES: CCCCCCc1cncn1C1CCOC1=O (stereo not drawn)
- IC50 [9]: 110 µM

SMILES: O=C1OCCC1NS(=O)(=O)CCc1ccccc1 (stereo not drawn)
- IC50 [10]: 3 µM

SMILES: O=C(Nc1ccc([N+](=O)[O-])cc1)c1cc(=O)c2ccccc2o1
- Activity [7]: 58.7%

SMILES: CCCCCCS(=O)(=O)N[C@H]1CCOC1=O
- IC50 [13]: 0.8 µM

SMILES: Nc1cc(NCC(=O)Nc2ccc(F)cc2)cc(C(F)(F)F)n1
- IC50 [9]: 0.48 µM

SMILES: CCCCS(=O)(=O)N[C@H]1CCOC1=O
- IC50 [13]: 0.6 µM

SMILES: O=C(Oc1c(Br)cc(Br)cc1CNC(=O)c1ccccc1[N+](=O)[O-])c1ccccc1Cl
- IC50 [12]: 0.038 µM

SMILES: COc1ccc(NC(=O)Cn2cc(CSc3nc4ccccc4c(=O)n3C3CC3)nn2)cc1
- inhibition [11]: 74%

SMILES: CCCCCNC(=O)NC1CCOC1=O (stereo not drawn)
- IC50 [14]: 1.1 µM

SMILES: CCCCCCCCCCS(=O)(=O)N[C@H]1CCOC1=O
- IC50 [8]: 1.1 µM

SMILES: O=C(Nc1ccc(F)cc1)c1cc(=O)c2ccccc2o1
- Activity [7]: 73.3%

SMILES: C[C@@H]1O[C@H](CNC(=O)/C=C/c2ccccc2)[C@@H](O)[C@H](O)[C@@H]1O
- IC50 [6]: 88 µM

SMILES: CCCCCCNC(=O)NC1CCOC1=O (stereo not drawn)
- IC50 [14]: 1 µM

SMILES: O=C(NCc1cc(F)cc(F)c1)c1ccccc1[N+](=O)[O-]
- IC50 [4]: 6.6 µM

SMILES: O=C(CN1CCOCC1)Nc1cccc([N+](=O)[O-])c1
- IC50 [1]: > 483 µM
